Assay results: patent US11339155B2, “2-(het)aryl-substituted fused bicyclic heterocycle derivatives as pesticides” (Bayer CropScience Aktiengesellschaft, priority 2016, dated 2022)

Key:
[1] = system: Meloidogyne incognita; assay: Meloidogyne incognita test; type: in vivo; settings: 20 ppm, lettuce, after 14 days
Description: Solvent: 125.0 parts by weight of acetone To produce a suitable active compound preparation, 1 part by weight of active compound is mixed with the stated amount of solvent and the concentrate is diluted to the desired concentration with water. Vessels are filled with sand, active compound solution, an egg/larvae suspension of the southern root-knot nematode (Meloidogyne incognita) and lettuce seeds. The lettuce seeds germinate and the plants develop. The galls develop on the roots. After 14 days, the nematicidal efficacy in % is determined by the formation of galls. 100% means that no galls were found; 0% means that the number of galls on the treated plants corresponds to the untreated control.

[2] = system: Myzus persicae; assay: Myzus persicae spray test (MYZUPE); type: in vivo; settings: 120 h; for pest or weed control at 500 g/ha / pest or weed control at 100 g/ha: foliar, Chinese cabbage leaf discs, after 5 days, read-out: efficacy; for Emax at 20 g/ha: MYZUPE, 5 dat, read-out: % efficacy
Description: Solvent: 78 parts by weight of acetone • • 1.5 parts by weight of dimethylformamide
(§1) Emulsifier: alkylaryl polyglycol ether
(§2) To produce a suitable active compound preparation, 1 part by weight of active compound is dissolved with the specified parts by weight of solvent and made up to the desired concentration with water containing an emulsifier concentration of 1000 ppm. To produce further test concentrations, the formulation is diluted with emulsifier-containing water.
Discs of Chinese cabbage leaves (Brassica pekinensis) infested by all stages of the green peach aphid (Myzus persicae) are sprayed with an active compound preparation of the desired concentration.
(§3) After 5 days, the efficacy in % is determined. 100% means that all the aphids have been killed; 0% means that no aphids have been killed.
(§4) Solvent: 78.0 parts by weight of acetone • • 1.5 parts by weight of dimethylformamide
After the desired period of time, the efficacy in % is determined. 100% means that all the aphids have been killed; 0% means that no aphids have been killed.

[3] = system: Myzus persicae; assay: Myzus persicae oral test; type: in vivo; settings: 120 h, after 5 days, read-out: efficacy
Description: Solvent: 100 parts by weight of acetone
To produce a suitable active compound preparation, 1 part by weight of active compound is dissolved with the stated parts by weight of solvent and made up to the desired concentration with water.
50 μl of the active compound preparation are transferred into microtitre plates and made up to a final volume of 200 μl with 150 μl of IPL41 insect medium (33%+15% sugar). Subsequently, the plates are sealed with parafilm, which a mixed population of green peach aphids (Myzus persicae) within a second microtitre plate is able to puncture and imbibe the solution.
as §3

[4] = system: Lucilia cuprina; assay: Lucilia cuprina test; type: in vivo; settings: 100 ppm, L1 larvae, after 2 days
Description: Solvent: dimethyl sulfoxide To produce a suitable active compound preparation, 10 mg of active compound are mixed with 0.5 ml of dimethyl sulfoxide, and the concentrate is diluted with water to the desired concentration. About 20 L1 larvae of the Australian sheep blowfly (Lucilia cuprina) are transferred into a test vessel containing minced horsemeat and the active compound preparation of the desired concentration. After 2 days, the kill in % is determined. 100% means that all the larvae have been killed; 0% means that no larvae have been killed.

[5] = system: Ctenocephalides felis; assay: Ctenocephalides felis oral test; type: in vivo; settings: 100 ppm in citrated cattle blood, adult cat fleas, after 2 days
Description: Solvent: dimethyl sulfoxide To produce a suitable active compound preparation, 10 mg of active compound are mixed with 0.5 ml of dimethyl sulfoxide. Dilution with citrated cattle blood gives the desired concentration. About 20 unfed adult cat fleas (Ctenocephalides felis) are placed into a chamber which is closed at the top and bottom with gauze. A metal cylinder whose bottom end is closed with parafilm is placed onto the chamber. The cylinder contains the blood/active compound preparation, which can be imbibed by the fleas through the parafilm membrane. After 2 days, the kill in % is determined. 100% means that all of the fleas have been killed; 0% means that none of the fleas have been killed.

[6] = system: Tetranychus urticae; assay: Tetranychus urticae spray test, OP-resistant (TETRUR); type: in vivo; settings: for efficacy / Emax at 100 g/ha: 100 g/ha; for efficacy: bean leaf discs, after 6 days; for Emax at 100 g/ha / Emax at 500 g/ha: Tetranychus urticae, 144 h, TETRUR, read-out: % efficacy; for Emax at 100 g/ha: 6 dat (comparative table); for Emax at 500 g/ha: 6 dat
Description: as §4, §1, §2
Discs of bean leaves (Phaseolus vulgaris) infested with all stages of the greenhouse red spider mite (Tetranychus urticae) are sprayed with an active compound preparation of the desired concentration.
After 6 days, the efficacy in % is determined. 100% means that all the spider mites have been killed; 0% means that no spider mites have been killed.
After the desired period of time, the efficacy in % is determined. 100% means that all the spider mites have been killed; 0% means that no spider mites have been killed.

[7] = system: Phaedon cochleariae; assay: Phaedon cochleariae spray test (PHAECO); type: in vivo; settings: for efficacy: larvae on Chinese cabbage leaf discs, after 7 days; for Emax at 20 g/ha: Phaedon cochleariae, 168 h, PHAECO, 7 dat, read-out: % efficacy
Description: as §4, §1, §2
After 7 days, the efficacy in % is determined. 100% means that all the beetle larvae have been killed; 0% means that no beetle larvae have been killed.
After the desired period of time, the efficacy in % is determined. 100% means that all the beetle larvae have been killed; 0% means that no beetle larvae have been killed.

[8] = system: Nilaparvata lugens; assay: Nilaparvata lugens spray test (NILALU); type: in vivo; settings: 96 h, 4 dat, read-out: % efficacy
Description: (§5) Solvent: 52.5 parts by weight of acetone • 7 parts by weight of dimethylformamide
as §1
(§6) To produce a suitable active compound preparation, 1 part by weight of active compound is dissolved with the specified parts by weight of solvent and made up to the desired concentration with water containing an emulsifier concentration of 1000 ppm. To produce further test concentrations, the formulation is diluted with emulsifier-containing water. If the addition of ammonium salts or/and penetrants is required, these are each added in a concentration of 1000 ppm to the formulation solution.
Rice plants (Oryza sativa) are sprayed with an active compound preparation of the desired concentration and then populated with larvae of the brown planthopper (Nilaparvata lugens).
After the desired period of time, the efficacy in % is determined. 100% means that all of the planthoppers have been killed; 0% means that none of the planthoppers have been killed.

[9] = system: Nezara viridula; assay: Nezara viridula spray test (NEZAVI); type: in vivo; settings: 96 h, 4 dat, read-out: % efficacy
Description: as §5, §1, §6
Barley plants (Hordeum vulgare) infected with larvae of the Southern green shield bug (Nezara viridula) are sprayed with an active compound preparation of the desired concentration.
After the desired period of time, the efficacy in % is determined. 100% means that all of the shield bugs have been killed; 0% means that none of the shield bugs have been killed.

[10] = log P by HPLC on reversed-phase column (EEC Directive 79/831 Annex V.A8); type: physicochemical; settings: reversed-phase C18 HPLC column, C 18 reversed phase, 55° C., pH 7.8, read-out: log P (neutral)
From the text: Called log P (neutral) in the table.

[11] = system: Ctenocephalides felis; assay: Ctenocephalides felis in vitro contact test with adult cat fleas; type: in vivo; settings: 5 μg/cm^2 (=500 g/ha), after 48 h
Description: For the coating of the test tubes, 9 mg of active compound are first dissolved in 1 ml of acetone p.a. and then diluted to the desired concentration with acetone p.a. 250 μl of the solution are distributed homogeneously on the inner walls and the base of a 25 ml glass tube by turning and rocking on an orbital shaker (rocking rotation at 30 rpm for 2 h). With 900 ppm of active compound solution and internal surface area 44.7 cm^2, given homogeneous distribution, an area-based dose of 5 μg/cm^2 is achieved.
After the solvent has evaporated off, the tubes are populated with 5-10 adult cat fleas (Ctenocephalides felis), sealed with a perforated plastic lid and incubated in a horizontal position at room temperature and ambient humidity. After 48 h, efficacy is determined. To this end, the tubes are stood upright and the fleas are knocked to the base of the tube. Fleas which remain motionless at the base or move in an uncoordinated manner are considered to be dead or moribund.
100% efficacy means that all the fleas were dead or moribund. 0% efficacy means that no fleas were harmed.

Compound | nematicidal efficacy (formation of galls) [1] | pest or weed control at 4 ppm [3] | pest or weed control at 20 ppm [3] | efficacy (kill in %) [5] | pest or weed control at 100 g/ha [2] | also measured
CCS(=O)(=O)c1ccc(NC(=O)NCCOC)nc1-c1nc2cc(C(F)(F)F)ncc2n1C [Example I-5] | 100% | 100% | 100% | 80% |  | pest or weed control at 500 g/ha [2]: 100%; efficacy (kill in %) [4]: 100%
CCS(=O)(=O)c1ccc(NC(=O)NCC[S+](C)[O-])nc1-c1nc2cc(C(F)(F)F)ncc2n1C (stereo not shown) [Example I-3] | 90% | 100% | 100% | 100% | 100% | efficacy [6]: 100%
CCS(=O)(=O)c1ccc(NC(=O)NC(C)C)nc1-c1nc2cc(C(F)(F)F)ncc2n1C [Example I-7] | 90% |  |  | 100% |  | 
CCS(=O)(=O)c1ccc(NC(=O)NCCSC)nc1-c1nc2cc(C(F)(F)F)ncc2n1C [Example I-6] |  | 100% | 100% |  | 90% | efficacy [6]: 70%; efficacy ([7]; 100 g/ha): 100%
CCS(=O)(=O)c1ccc(N(C)C(=O)NC)nc1-c1nc2cc(C(F)(F)F)ncc2n1C [Example I-12] |  |  |  |  | 90% | Emax at 4 g/ha [8]: 90%; Emax at 20 g/ha [2]: 90%
CCS(=O)(=O)c1ccc(NC(=O)NCCC#N)nc1-c1nc2cc(C(F)(F)F)ncc2n1C [Example I-2] | 100% | 100% | 100% | 100% |  | pest or weed control at 500 g/ha [2]: 90%
CCS(=O)(=O)c1ccc(NC(=O)n2cc(Br)cn2)nc1-c1nc2cc(C(F)(F)F)ncc2n1C [Example I-13] |  | 90% |  |  | 90% | 
CCS(=O)(=O)c1ccc(NC(=O)NCCS(C)(=O)=O)nc1-c1nc2cc(C(F)(F)F)ncc2n1C [Example I-8] |  | 90% | 100% | 100% | 90% | efficacy [6]: 100%
CCS(=O)(=O)c1ccc(NC(=O)NC)nc1-c1nc2cc(C(F)(F)F)ncc2n1C [Example I-4, 1-[5-Ethylsulfonyl-6-[3-methyl-6-(trifluoromethyl)imidazo[4,5-c]pyridin-2-yl]-2-pyridyl]-3-methylurea] |  |  |  | 100% |  | pest or weed control at 500 g/ha [2]: 90%; efficacy ([7]; 500 g/ha): 100%; Emax at 20 g/ha [9]: 100%; chromatographic logP [10]: 1.83; efficacy [11]: 100%; efficacy (kill in %) [4]: 100%
CCNC(=O)Nc1ccc(S(=O)(=O)CC)c(-c2nc3cc(C(F)(F)F)ncc3n2C)n1 [Example I-1] | 100% |  |  | 100% |  | pest or weed control at 500 g/ha [2]: 90%; efficacy [6]: 90%; Emax at 100 g/ha [6]: 90%; Emax at 500 g/ha [6]: 90%; efficacy ([7]; 500 g/ha): 100%; Emax at 20 g/ha [7]: 83%
CCS(=O)(=O)c1ccc(NC(C)=O)nc1-c1nc2cc(C(F)(F)F)ncc2n1C [reference compound] |  |  |  |  |  | Emax at 20 g/ha [9]: 0%
CCC(=O)Nc1ccc(S(=O)(=O)CC)c(-c2nc3cc(C(F)(F)F)ncc3n2C)n1 [Example No. 13 known from WO 2016/124557, reference compound] |  |  |  |  |  | Emax at 100 g/ha [6]: 0%; Emax at 500 g/ha [6]: 70%; Emax at 20 g/ha [7]: 50%
CCS(=O)(=O)c1ccc(NC(=O)N(C)C)nc1-c1nc2cc(C(F)(F)F)ncc2n1C [Example I-15] | 100% | 100% |  |  | 90% | efficacy ([7]; 100 g/ha): 100%
CCS(=O)(=O)c1ccc(NC(=O)N2CCCC2)nc1-c1nc2cc(C(F)(F)F)ncc2n1C [Example I-14] |  | 100% |  |  | 90% | 
CCS(=O)(=O)c1ccc(N(C)C(C)=O)nc1-c1nc2cc(C(F)(F)F)ncc2n1C [Example No. 69 known from WO 2016/124557, reference compound] |  |  |  |  |  | Emax at 4 g/ha [8]: 0%; Emax at 20 g/ha [2]: 0%
